Legend:
[1] = biological target: Sigma non-opioid intracellular receptor 1 (Homo sapiens) (UniProt Q99720); conditions: Compound concentration 10.0 uM
[2] = biological target: T1, Muscarinic acetylcholine receptor M4 (Homo sapiens) (UniProt P08173); conditions: Compound concentration 10.0 uM
T1 sequence (whole entry): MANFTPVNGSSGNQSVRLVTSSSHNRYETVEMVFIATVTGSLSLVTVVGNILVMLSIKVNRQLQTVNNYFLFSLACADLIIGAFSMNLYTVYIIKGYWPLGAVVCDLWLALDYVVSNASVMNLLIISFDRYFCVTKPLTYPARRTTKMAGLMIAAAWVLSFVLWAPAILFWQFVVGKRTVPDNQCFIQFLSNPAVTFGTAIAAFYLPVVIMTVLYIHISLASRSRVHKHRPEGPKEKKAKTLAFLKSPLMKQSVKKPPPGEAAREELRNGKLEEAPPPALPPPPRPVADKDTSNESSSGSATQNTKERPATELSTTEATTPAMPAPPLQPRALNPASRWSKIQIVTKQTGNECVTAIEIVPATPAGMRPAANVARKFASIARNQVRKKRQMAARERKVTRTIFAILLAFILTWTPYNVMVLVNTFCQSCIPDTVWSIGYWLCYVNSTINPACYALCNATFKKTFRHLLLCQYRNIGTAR

[3] = biological target: D(2) dopamine receptor (Homo sapiens, UniProt P14416); assay: Bayer Inhouse […] panel (DRD2)
[4] = biological target: Sodium-dependent noradrenaline transporter (Homo sapiens) (UniProt P23975); conditions: Compound concentration 10.0 uM
[5] = biological target: Beta-1 adrenergic receptor (Homo sapiens, UniProt P08588); conditions: Compound concentration 10.0 uM
[6] = biological target: T2, 5-hydroxytryptamine receptor 2C (Homo sapiens) (UniProt P28335); conditions: Compound concentration 10.0 uM
T2 sequence (whole entry): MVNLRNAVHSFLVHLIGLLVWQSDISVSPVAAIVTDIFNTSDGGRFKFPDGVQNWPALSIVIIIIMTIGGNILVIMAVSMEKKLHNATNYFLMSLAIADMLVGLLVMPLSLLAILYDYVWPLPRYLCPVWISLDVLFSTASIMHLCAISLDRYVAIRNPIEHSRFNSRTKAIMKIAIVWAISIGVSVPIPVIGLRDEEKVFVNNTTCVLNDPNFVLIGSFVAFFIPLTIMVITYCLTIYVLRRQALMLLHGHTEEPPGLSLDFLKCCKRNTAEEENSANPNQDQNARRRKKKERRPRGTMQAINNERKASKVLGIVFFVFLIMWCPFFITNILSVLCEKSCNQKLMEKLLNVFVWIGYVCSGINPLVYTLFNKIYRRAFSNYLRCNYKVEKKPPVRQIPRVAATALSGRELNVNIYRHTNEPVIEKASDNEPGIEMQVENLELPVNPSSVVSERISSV

[7] = biological target: Muscarinic acetylcholine receptor M3 (Homo sapiens) (UniProt P20309); conditions: Compound concentration 10.0 uM
Muscarinic acetylcholine receptor M3 (Homo sapiens), sequence (P20309 whole entry, looked up): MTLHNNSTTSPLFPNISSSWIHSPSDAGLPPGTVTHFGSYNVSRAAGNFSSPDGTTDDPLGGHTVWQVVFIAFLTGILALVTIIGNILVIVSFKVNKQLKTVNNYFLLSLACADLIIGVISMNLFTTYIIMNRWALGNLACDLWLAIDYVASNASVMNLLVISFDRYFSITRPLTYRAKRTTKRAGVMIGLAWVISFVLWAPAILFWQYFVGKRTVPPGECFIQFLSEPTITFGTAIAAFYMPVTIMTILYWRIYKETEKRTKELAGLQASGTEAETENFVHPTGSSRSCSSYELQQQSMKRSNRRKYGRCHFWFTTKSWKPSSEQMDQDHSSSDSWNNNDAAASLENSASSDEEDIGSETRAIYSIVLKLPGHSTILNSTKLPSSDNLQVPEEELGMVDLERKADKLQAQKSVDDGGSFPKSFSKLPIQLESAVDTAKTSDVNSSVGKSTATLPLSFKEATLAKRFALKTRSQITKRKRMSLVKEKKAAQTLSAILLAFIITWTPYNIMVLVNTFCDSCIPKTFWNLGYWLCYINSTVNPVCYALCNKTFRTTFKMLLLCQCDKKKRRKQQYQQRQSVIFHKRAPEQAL

[8] = biological target: GABA-A receptor; anion channel (Rattus norvegicus) (UniProt O09028+P15431+P18506+P18508+P19969+P20236+P23574+P23576+P28471+P28473+P30191+P62813+P63079+P63138+Q91ZM7+Q9ES14); conditions: Compound concentration 10.0 uM
[9] = biological target: Alpha-2C adrenergic receptor (Homo sapiens) (UniProt P18825); conditions: Compound concentration 10.0 uM
Alpha-2C adrenergic receptor (Homo sapiens), sequence (P18825 whole entry): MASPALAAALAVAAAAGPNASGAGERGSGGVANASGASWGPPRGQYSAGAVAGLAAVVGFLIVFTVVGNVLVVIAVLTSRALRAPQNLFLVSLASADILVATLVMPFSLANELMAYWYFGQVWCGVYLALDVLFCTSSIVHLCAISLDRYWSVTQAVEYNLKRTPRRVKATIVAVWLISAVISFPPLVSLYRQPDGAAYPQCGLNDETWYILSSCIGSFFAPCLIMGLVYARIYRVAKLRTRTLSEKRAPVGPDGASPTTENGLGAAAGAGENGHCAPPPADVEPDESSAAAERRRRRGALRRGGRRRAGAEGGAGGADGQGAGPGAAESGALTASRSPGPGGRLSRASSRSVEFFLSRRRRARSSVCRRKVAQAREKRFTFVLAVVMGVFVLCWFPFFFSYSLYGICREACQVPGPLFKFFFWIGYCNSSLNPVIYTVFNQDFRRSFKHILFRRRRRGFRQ

[10] = biological target: 5-hydroxytryptamine receptor 1B (Homo sapiens) (UniProt P28222); conditions: Compound concentration 10.0 uM
[11] = biological target: Histamine H4 receptor (Homo sapiens) (UniProt Q9H3N8); conditions: Compound concentration 10.0 uM
Histamine H4 receptor (Homo sapiens), sequence (Q9H3N8 whole entry): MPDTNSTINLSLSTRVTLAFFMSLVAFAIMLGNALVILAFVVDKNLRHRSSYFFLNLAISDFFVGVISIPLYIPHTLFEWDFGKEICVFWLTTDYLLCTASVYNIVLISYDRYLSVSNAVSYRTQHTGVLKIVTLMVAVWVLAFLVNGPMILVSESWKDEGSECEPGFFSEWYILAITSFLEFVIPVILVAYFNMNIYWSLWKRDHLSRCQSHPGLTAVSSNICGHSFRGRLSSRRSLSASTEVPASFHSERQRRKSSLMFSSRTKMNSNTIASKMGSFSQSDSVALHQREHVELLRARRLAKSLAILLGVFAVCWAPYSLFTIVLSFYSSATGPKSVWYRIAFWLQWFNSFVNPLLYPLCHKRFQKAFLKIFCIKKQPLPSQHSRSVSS

[12] = biological target: D(4) dopamine receptor (Homo sapiens) (UniProt P21917); conditions: Compound concentration 10.0 uM
D(4) dopamine receptor (Homo sapiens), sequence (P21917 whole entry): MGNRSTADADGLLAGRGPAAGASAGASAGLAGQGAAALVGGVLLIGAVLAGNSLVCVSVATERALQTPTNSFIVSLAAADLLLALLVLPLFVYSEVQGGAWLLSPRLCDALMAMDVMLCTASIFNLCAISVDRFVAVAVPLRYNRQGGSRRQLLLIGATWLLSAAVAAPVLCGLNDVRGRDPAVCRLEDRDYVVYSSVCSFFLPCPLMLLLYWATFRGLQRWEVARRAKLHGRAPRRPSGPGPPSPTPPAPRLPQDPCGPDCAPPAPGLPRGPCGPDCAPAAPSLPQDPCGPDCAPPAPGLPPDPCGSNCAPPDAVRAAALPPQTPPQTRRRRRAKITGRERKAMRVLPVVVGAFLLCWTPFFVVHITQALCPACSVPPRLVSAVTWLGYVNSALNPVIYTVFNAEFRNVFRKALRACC

[13] = biological target: Histamine H3 receptor (Homo sapiens) (UniProt Q9Y5N1); conditions: Compound concentration 10.0 uM
[14] = biological target: T3, Muscarinic acetylcholine receptor M2 (Homo sapiens) (UniProt P08172); conditions: Compound concentration 10.0 uM
T3 sequence (whole entry): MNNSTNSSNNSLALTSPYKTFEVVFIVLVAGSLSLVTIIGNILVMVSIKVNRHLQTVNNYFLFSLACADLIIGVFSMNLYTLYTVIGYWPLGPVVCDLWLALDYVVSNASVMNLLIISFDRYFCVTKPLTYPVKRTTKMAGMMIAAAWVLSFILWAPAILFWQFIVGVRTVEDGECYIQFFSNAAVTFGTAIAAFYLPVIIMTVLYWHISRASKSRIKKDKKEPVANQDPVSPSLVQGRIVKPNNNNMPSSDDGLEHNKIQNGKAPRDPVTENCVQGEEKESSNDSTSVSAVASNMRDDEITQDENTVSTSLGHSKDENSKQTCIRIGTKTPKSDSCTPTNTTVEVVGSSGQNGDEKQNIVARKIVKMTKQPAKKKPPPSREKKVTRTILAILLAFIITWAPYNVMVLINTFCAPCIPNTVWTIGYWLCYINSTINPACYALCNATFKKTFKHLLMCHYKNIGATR

[15] = biological target: Delta-type opioid receptor (Homo sapiens) (UniProt P41143); conditions: Compound concentration 10.0 uM
Delta-type opioid receptor (Homo sapiens), sequence (P41143 whole entry): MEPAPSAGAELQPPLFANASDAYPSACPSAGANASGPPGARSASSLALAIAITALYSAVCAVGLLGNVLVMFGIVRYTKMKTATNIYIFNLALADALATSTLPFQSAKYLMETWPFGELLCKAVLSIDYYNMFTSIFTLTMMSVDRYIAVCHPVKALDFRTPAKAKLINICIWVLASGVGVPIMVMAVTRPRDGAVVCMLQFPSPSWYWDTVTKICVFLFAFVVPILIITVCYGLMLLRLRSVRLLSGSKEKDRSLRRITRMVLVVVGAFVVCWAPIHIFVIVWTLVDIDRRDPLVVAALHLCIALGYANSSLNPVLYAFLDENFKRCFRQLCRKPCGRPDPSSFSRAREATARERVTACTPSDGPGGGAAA

[16] = biological target: Beta-3 adrenergic receptor (Homo sapiens, UniProt P13945); conditions: Compound concentration 10.0 uM
Beta-3 adrenergic receptor, sequence (P13945 whole entry, looked up): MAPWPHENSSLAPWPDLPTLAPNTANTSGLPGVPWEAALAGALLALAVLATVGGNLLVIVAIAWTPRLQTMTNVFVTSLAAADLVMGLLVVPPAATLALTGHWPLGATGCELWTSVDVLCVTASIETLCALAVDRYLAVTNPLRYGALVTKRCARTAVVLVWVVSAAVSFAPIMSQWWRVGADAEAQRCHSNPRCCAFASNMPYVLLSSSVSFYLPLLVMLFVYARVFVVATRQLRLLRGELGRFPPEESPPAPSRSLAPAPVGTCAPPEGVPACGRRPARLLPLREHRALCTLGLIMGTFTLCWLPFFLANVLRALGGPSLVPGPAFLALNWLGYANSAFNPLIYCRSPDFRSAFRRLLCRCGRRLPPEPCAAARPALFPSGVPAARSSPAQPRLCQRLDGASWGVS

[17] = biological target: D(1A) dopamine receptor (Homo sapiens) (UniProt P21728); conditions: Compound concentration 10.0 uM
[18] = biological target: 5-hydroxytryptamine receptor 2A (Homo sapiens) (UniProt P28223); conditions: Compound concentration 10.0 uM
[19] = biological target: Alpha-2A adrenergic receptor (Homo sapiens, UniProt P08913); assay: Adrenoceptor reporter cell assay (ADRA2A); type: functional
Alpha-2A adrenergic receptor, sequence (P08913 whole entry): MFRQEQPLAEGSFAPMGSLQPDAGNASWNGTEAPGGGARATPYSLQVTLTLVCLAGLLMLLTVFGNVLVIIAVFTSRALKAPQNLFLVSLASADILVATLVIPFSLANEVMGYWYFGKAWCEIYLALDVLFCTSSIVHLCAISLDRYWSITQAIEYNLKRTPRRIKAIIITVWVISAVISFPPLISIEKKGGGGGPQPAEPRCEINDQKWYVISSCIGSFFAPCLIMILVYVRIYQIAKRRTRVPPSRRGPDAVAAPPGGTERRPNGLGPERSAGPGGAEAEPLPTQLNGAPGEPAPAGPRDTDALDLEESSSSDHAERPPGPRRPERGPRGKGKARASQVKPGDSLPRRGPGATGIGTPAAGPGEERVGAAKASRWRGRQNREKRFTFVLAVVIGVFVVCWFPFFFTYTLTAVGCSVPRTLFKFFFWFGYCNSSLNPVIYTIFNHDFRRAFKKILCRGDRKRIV

[20] = biological target: Histamine H2 receptor (Homo sapiens) (UniProt P25021); conditions: Compound concentration 10.0 uM
[21] = biological target: Alpha-1A adrenergic receptor (Homo sapiens) (UniProt P35348); conditions: Compound concentration 10.0 uM
[22] = biological target: 5-hydroxytryptamine receptor 2B (Homo sapiens) (UniProt P41595); conditions: Compound concentration 10.0 uM
5-hydroxytryptamine receptor 2B (Homo sapiens), sequence (P41595 whole entry): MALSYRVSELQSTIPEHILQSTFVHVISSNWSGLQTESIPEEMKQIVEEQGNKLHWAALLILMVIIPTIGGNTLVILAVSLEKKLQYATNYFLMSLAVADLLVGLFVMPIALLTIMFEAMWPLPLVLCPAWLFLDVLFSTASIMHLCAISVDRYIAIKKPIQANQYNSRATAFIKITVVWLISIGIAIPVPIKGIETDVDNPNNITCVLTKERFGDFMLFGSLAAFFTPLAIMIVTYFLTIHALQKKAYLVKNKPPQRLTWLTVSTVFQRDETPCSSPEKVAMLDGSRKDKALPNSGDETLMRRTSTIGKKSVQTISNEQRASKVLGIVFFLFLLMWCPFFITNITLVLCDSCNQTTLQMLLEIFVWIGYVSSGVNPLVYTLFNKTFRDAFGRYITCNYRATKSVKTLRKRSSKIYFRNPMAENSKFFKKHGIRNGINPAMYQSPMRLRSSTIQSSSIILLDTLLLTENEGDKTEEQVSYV

[23] = biological target: Histamine H1 receptor (Homo sapiens) (UniProt P35367); conditions: Compound concentration 10.0 uM
Histamine H1 receptor (Homo sapiens), sequence (P35367 whole entry): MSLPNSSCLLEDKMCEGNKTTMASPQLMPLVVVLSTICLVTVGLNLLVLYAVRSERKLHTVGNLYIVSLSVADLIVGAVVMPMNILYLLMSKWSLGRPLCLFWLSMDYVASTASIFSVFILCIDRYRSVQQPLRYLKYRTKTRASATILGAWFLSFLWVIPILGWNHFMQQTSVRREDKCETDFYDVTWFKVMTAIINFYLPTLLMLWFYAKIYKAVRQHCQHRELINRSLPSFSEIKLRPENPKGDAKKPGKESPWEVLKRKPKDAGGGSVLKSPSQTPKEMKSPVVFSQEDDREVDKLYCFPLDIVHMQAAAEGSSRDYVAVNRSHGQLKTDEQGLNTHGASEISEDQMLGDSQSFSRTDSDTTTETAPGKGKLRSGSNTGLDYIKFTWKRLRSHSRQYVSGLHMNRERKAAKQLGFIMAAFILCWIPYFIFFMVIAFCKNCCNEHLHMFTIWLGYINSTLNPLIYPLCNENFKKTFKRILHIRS

[24] = biological target: Alpha-2A adrenergic receptor (Homo sapiens) (UniProt P08913); conditions: Compound concentration 10.0 uM
Alpha-2A adrenergic receptor (Homo sapiens), sequence (P08913 whole entry): as the sequence (P08913 whole entry) above

[25] = biological target: Sigma intracellular receptor 2 (Homo sapiens) (UniProt Q5BJF2); conditions: Compound concentration 10.0 uM
[26] = biological target: 5-hydroxytryptamine receptor 3A (Homo sapiens) (UniProt P46098); conditions: Compound concentration 10.0 uM
5-hydroxytryptamine receptor 3A (Homo sapiens), sequence (P46098 whole entry): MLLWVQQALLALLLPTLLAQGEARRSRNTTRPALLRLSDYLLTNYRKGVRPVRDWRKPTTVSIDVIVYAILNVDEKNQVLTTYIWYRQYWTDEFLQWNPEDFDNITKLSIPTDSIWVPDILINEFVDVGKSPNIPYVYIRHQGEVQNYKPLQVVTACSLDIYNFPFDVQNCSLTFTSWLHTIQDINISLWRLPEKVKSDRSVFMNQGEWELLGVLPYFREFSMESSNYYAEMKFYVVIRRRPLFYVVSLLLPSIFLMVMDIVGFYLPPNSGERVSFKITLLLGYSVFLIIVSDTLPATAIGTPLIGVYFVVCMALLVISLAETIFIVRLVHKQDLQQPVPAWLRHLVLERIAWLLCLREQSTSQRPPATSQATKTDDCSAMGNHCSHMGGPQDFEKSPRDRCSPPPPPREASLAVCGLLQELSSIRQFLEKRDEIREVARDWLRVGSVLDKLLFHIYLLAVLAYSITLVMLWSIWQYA

Sigma non-opioid intracellular receptor 1 (Homo sapiens), sequence (Q99720 whole entry): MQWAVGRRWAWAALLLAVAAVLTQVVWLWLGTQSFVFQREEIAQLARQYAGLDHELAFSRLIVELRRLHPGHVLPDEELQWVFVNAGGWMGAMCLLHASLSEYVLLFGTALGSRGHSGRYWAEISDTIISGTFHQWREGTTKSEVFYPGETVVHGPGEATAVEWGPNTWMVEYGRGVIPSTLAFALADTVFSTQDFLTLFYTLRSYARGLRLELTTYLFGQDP

| SMILES | inhibition [1] | inhibition [2] | IC50 [3] | inhibition [4] | inhibition [5] | inhibition [6] | inhibition [7] | inhibition [8] | inhibition [9] | inhibition [10] | inhibition [11] | inhibition [12] | inhibition [13] | inhibition [14] | inhibition [15] | inhibition [16] | inhibition [17] | inhibition [18] | IC50 [19] | inhibition [20] | further results |
| --- | --- | --- | --- | --- | --- | --- | --- | --- | --- | --- | --- | --- | --- | --- | --- | --- | --- | --- | --- | --- | --- |
| CNc1cc[n+](CCNC(=O)c2ccn3c(-c4c(C)noc4C)cnc3c2)cc1 | 35.5% | -6.15% | 1.4 µM (not active) | -2.68% | 2.87% | -3.48% | 0.75% | 20.9% | 41.3% | 9.81% | 3.02% | 11.3% | 9.04% | 3.34% | 20.1% | 1.07% | -2.83% | 17% | 10 µM (not active) | 5.19% | inhibition [21]: 31.1%; inhibition [22]: 4.13%; inhibition [23]: 1.15%; inhibition [24]: 49.5%; inhibition [25]: 27.5%; inhibition [26]: 6.7% |
| Cc1noc(C)c1-c1cnc2cc(C(=O)NCCC[n+]3ccc(N(C)C)cc3)ccn12 | 25.1% | 12.5% | > 20 µM (not active) | 1.75% | 3.84% | -5.48% | 18% | -7.67% | 18.3% | -0.88% | 15.9% | 3.03% | 36% | 7.75% | -5.36% | -3.02% | -2.67% | -4.21% | > 10 µM (not active) | 9.52% | inhibition [21]: 9.17%; inhibition [22]: 10.3%; inhibition [23]: 2.11%; inhibition [24]: 16.1%; inhibition [25]: 14.1%; inhibition [26]: 4.99% |

Reference: ChEMBL document CHEMBL5463728, “Data for DCP probe BAY-6096” (2023)
